Assay results from US9255100B2 (BAYER INTELLECTUAL PROPERTY GMBH, priority 2010, dated 2016).

Biological target: T1, N-terminally GST-tagged human full length recombinant Mps-1 kinase (Homo sapiens, UniProt P33981)
T1 construct: N-terminally GST-tagged human full length recombinant Mps-1 kinase; purchased Invitrogen, Karslruhe, Germany PV4071
T1 sequence (P33981 1-857): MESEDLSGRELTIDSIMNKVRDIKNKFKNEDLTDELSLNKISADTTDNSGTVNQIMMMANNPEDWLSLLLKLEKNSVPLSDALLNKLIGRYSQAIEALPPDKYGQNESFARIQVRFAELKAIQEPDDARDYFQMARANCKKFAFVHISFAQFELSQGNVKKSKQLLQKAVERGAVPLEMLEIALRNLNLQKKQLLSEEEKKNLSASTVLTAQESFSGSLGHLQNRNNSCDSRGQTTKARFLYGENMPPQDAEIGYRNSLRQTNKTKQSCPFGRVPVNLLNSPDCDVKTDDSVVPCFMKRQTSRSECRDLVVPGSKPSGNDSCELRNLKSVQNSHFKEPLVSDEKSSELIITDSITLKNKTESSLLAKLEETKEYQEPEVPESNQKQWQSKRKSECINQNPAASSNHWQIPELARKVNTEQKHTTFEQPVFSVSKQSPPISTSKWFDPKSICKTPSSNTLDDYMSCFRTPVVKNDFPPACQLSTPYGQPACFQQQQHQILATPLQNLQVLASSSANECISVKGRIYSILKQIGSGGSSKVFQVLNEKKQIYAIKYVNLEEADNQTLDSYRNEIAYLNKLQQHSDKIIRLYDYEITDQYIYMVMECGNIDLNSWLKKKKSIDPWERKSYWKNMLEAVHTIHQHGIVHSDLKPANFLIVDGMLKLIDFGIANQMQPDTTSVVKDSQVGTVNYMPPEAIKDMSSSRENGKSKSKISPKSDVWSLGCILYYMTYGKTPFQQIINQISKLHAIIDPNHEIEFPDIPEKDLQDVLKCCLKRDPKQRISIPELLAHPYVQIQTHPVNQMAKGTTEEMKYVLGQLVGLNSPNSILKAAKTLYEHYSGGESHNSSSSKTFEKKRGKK
Experiment: Mps-1 kinase assay (TR-FRET)
Assay type: biochemical
Details: Mps1 IC50 [nM], 10 μM ATP, 1 μM peptide substrate, 60 min at 22° C.
How it was run: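 TR-FRET signal between a Europium anti-phospho-Ser/Thr antibody and streptavidin-XLent reported phosphorylation of a biotinylated peptide by GST-tagged full-length Mps-1. Enzyme was near 1 nM final, chosen per lot for linearity.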

In the case of `Cc1cc(-c2cnc3c(NCCN4CCOCC4)cc(Oc4ccc(F)c(F)c4)nn23)ccc1C(=O)NC1CC1` [Example 540, N-cyclopropyl-4-[6-(3,4-difluoro-phenoxy)-8-{[2-(morpholin-4-yl)ethyl]amino}imidazo[1,2-b]pyridazin-3-yl]-2-methyl-benzamide], the IC50 is reported as 0.1 nM.
For `Cc1cc(-c2cnc3c(NCC(C)(C)O)cc(Sc4cc(F)cc(F)c4)nn23)ccc1C(=O)NC1CC1` [Example 68, N-cyclopropyl-4-{6-[(3,5-difluorophenyl)sulfanyl]-8-[(2-hydroxy-2-methylpropyl)amino]imidazo[1,2-b]pyridazin-3-yl}-2-methylbenzamide], the IC50 was under 0.1 nM.
Work on `Cc1cc(-c2cnc3c(NCC(C)(C)O)cc(O[C@H]4CCNC4=O)nn23)ccc1C(=O)NC1CC1` [Example 263, N-cyclopropyl-4-(8-[(2-hydroxy-2-methylpropyl)amino]-6-{[(3S)-2-oxopyrrolidin-3-yl]oxy}imidazo[1,2-b]pyridazin-3-yl)-2-methylbenzamide] yielded an IC50 of 32.4 nM.
`Cc1cc(-c2cnc3c(NCC(C)(C)O)cc(Nc4ccc(F)c(F)c4)nn23)ccc1C(=O)NC1CC1` [Example 307, N-cyclopropyl-4-{6-[(3,4-difluorophenyl)amino]-8-[(2-hydroxy-2-methylpropyl)amino]imidazo[1,2-b]pyridazin-3-yl}-2-methylbenzamide] was tested, and the IC50 was 0.5 nM.
`Cc1cc(-c2cnc3c(NCCC(F)(F)F)cc(Nc4ccncc4O)nn23)ccc1C(=O)NC1CC1` [Example 481, N-cyclopropyl-4-{6-[(3-hydroxypyridin-4-yl)amino]-8-[(3,3,3-tri-fluoropropyl)amino]imidazo[1,2-b]pyridazin-3-yl}-2-methylbenzamide] was tested, and the IC50 was 3.1 nM.
Work on `CC(C)CNc1cc(Cl)nn2c(-c3ccc(C(=O)NC(C)C)cc3)cnc12` [Example 179, 4-{6-Chloro-8-[(2-methylpropyl)amino]imidazo[1,2-b]pyridazin-3-yl}-N-(propan-2-yl)benzamide] yielded an IC50 of 601 nM.
With `CNC(=O)c1ccc(-c2cnc3c(NCC4CCOCC4)cc(Oc4ccc(OC)c(F)c4)nn23)cc1C` [Example 573, 4-{6-(3-fluoro-4-methoxyphenoxy)-8-[(tetrahydro-2H-pyran-4-ylmethyl)amino]imidazo[1,2-b]pyridazin-3-yl}-N,2-dimethylbenzamide] the IC50 was under 1 nM.
`Cc1cc(-c2cnc3c(NCCC(F)(F)F)cc(SCCO)nn23)ccc1C(=O)NC1CC1` [Example 204, N-cyclopropyl-4-{6-[(2-hydroxyethyl)sulfanyl]-8-[(3,3,3-trifluoropropyl)amino]imidazo[1,2-b]pyridazin-3-yl}-2-methylbenzamide] showed an IC50 of under 1 nM.
In the case of `CNC(=O)c1ccc(-c2cnc3c(NCCC(F)(F)F)cc(Oc4ccc(O)cc4F)nn23)cc1C` [Example 560, 4-{6-(2-fluoro-4-hydroxyphenoxy)-8-[(3,3,3-trifluoropropyl)amino]imidazo[1,2-b]pyridazin-3-yl}-N,2-dimethylbenzamide], the IC50 is reported as 0.1 nM.
`CNC(=O)c1ccc(-c2cnc3c(NCCN4CCOCC4)cc(Oc4cc(F)ccc4C)nn23)cc1C` [Example 566, 4-[6-(5-fluoro-2-methylphenoxy)-8-{[2-(morpholin-4-yl)ethyl]amino}imidazo[1,2-b]pyridazin-3-yl]-N,2-dimethylbenzamide] gave an IC50 of 1.7 nM.
With `Cc1cc(-c2cnc3c(NCCC(F)(F)F)cc(OCC(F)(F)C(F)(F)CO)nn23)ccc1C(=O)NC1CC1` [Example 278A, N-cyclopropyl-2-methyl-4-{6-(2,2,3,3-tetrafluoro-4-hydroxybutoxy)-8-[(3,3,3-trifluoropropyl)amino]imidazo[1,2-b]pyridazin-3-yl}benzamide] the IC50 was 0.4 nM.
Compound `COC1(NC(=O)c2ccc(-c3cnc4c(NCCC(F)(F)F)cc(Oc5cccc(F)c5)nn34)cc2C)CC1` [Example 460, 4-{6-(3-fluorophenoxy)-8-[(3,3,3-trifluoropropyl)amino]imidazo[1,2-b]pyridazin-3-yl}-N-(1-methoxycyclopropyl)-2-methylbenzamide] has an IC50 of 0.3 nM.
For `Cc1cc(-c2cnc3c(NCCC(F)(F)F)cc(Oc4cccc(F)c4)nn23)ccc1C(=O)NCC(F)F` [Example 556, N-(2,2-difluoroethyl)-4-{6-(3-fluorophenoxy)-8-[(3,3,3-trifluoropropyl)amino]imidazo[1,2-b]pyridazin-3-yl}-2-methylbenzamide], the IC50 was 0.3 nM.
`Cc1cc(-c2cnc3c(NCCC(F)(F)F)cc(O/C=C(/F)C(F)(F)CO)nn23)ccc1C(=O)NC1CC1` [Example 278B, N-cyclopropyl-2-methyl-4-(6-{[(1E)-2,3,3-trifluoro-4-hydroxybut-1-en-1-yl]oxy}-8-[(3,3,3-trifluoropropyl)amino]imidazo[1,2-b]pyridazin-3-yl)benzamide] gave an IC50 of 1 nM.
In the case of `Cc1cc(-c2cnc3c(NCC(C)C)cc(SCC4CCCO4)nn23)ccc1C(=O)NC1CC1` (racemic) [Example 194, (RS)—N-cyclopropyl-2-methyl-4-{8-[(2-methylpropyl)amino]-6-[(tetrahydrofuran-2-ylmethyl)sulfanyl]imidazo[1,2-b]pyridazin-3-yl}benzamide], the IC50 is reported as 2.5 nM.
With `Cc1cc(-c2cnc3c(NCCC(F)(F)F)cc(Oc4ccccc4O)nn23)ccc1C(=O)NC1CC1` [Example 280, N-cyclopropyl-4-{6-(2-hydroxyphenoxy)-8-[(3,3,3-trifluoropropyl)amino]imidazo[1,2-b]pyridazin-3-yl}-2-methylbenzamide] the IC50 was 0.1 nM.
`Cc1cc(-c2cnc3c(NCCC(F)(F)F)cc(Oc4cccc(F)c4)nn23)ccc1C(=O)NCC(F)(F)C(F)(F)F` [Example 555, 4-{6-(3-fluorophenoxy)-8-[(3,3,3-trifluoropropyl)amino]imidazo[1,2-b]pyridazin-3-yl}-2-methyl-N-(2,2,3,3,3-pentafluoropropyl)benzamide] was tested, and the IC50 was 9.4 nM.
`Cc1cc(-c2cnc3c(NCCC(F)(F)F)cc(Sc4cc(F)ccc4F)nn23)ccc1C(=O)NC1CC1` [Example 255, N-cyclopropyl-4-{6-[(2,5-difluorophenyl)sulfanyl]-8-[(3,3,3-trifluoropropyl)amino]imidazo[1,2-b]pyridazin-3-yl}-2-methylbenzamide] was tested, and the IC50 was 0.2 nM.
`Cc1ccc(Sc2cc(NCC(C)(C)O)c3ncc(-c4ccc(C(=O)NC5CC5)c(C)c4)n3n2)cc1F` [Example 66, N-cyclopropyl-4-{6-[(3-fluoro-4-methylphenyl)sulfanyl]-8-[(2-hydroxy-2-methylpropyl)amino]imidazo[1,2-b]pyridazin-3-yl}-2-methylbenzamide] was tested, and the IC50 was 0.2 nM.
In the case of `CC(C)CNc1cc(-c2cccnc2)nn2c(-c3ccc(C(=O)NC4CC4)cc3)cnc12` [Example 138, N-cyclopropyl-4-{8-[(2-methylpropyl)amino]-6-(pyridin-3-yl)imidazo [1,2-b]pyridazin-3-yl} benzamide], the IC50 is reported as 2 nM.
For `CNC(=O)c1ccc(-c2cnc3c(NCCC(F)(F)F)cc(Oc4cc(F)ccc4C)nn23)cc1C` [Example 577, 4-{6-(5-fluoro-2-methylphenoxy)-8-[(3,3,3-trifluoropropyl)a-mino]imidazo[1,2-b]pyridazin-3-yl}-N,2-dimethylbenzamide], the IC50 was 1.4 nM.
`Cc1cc(-c2cnc3c(NCC(C)(C)O)cc(-c4ccccc4CF)nn23)ccc1C(=O)NC1CC1` [Example 222, N-cyclopropyl-4-{6-[2-(fluoromethyl)phenyl]-8-[(2-hydroxy-2-methylpropyl)amino]imidazo[1,2-b]pyridazin-3-yl}-2-methylbenzamide] gave an IC50 of 2.1 nM.
With `Cc1cc(-c2cnc3c(NCC(C)(C)O)cc(Nc4cccc(O)c4)nn23)ccc1C(=O)NC1CC1` [Example 446, N-cyclopropyl-4-{8-[(2-hydroxy-2-methylpropyl)amino]-6-[(3-hydroxyphenyl)amino]imidazo[1,2-b]pyridazin-3-yl}-2-methylbenzamide] the IC50 was 0.4 nM.
In the case of `Cc1cc(-c2cnc3c(NCCO)cc(Sc4cccc(F)c4)nn23)ccc1C(=O)NC1CC1` [Example 276, N-cyclopropyl-4-{6-[(3-fluorophenyl)sulfanyl]-8-[(2-hydroxyethyl)amino]imidazo[1,2-b]pyridazin-3-yl}-2-methylbenzamide], the IC50 is reported as 0.1 nM.
In the case of `COc1ccc(Nc2cc(NCCC(F)(F)F)c3ncc(-c4ccc(C(=O)NC5CC5)c(C)c4)n3n2)cc1F` [Example 424, N-cyclopropyl-4-{6-[(3-fluoro-4-methoxyphenyl)amino]-8-[(3,3,3-trifluoropropyl)amino]imidazo[1,2-b]pyridazin-3-yl}-2-methylbenzamide], the IC50 is reported as 0.2 nM.
For `Cc1cc(-c2cnc3c(NCC(C)(C)O)cc(Nc4cccc(F)c4F)nn23)ccc1C(=O)NC1CC1` [Example 352, N-cyclopropyl-4-{6-[(2,3-difluorophenyl)amino]-8-[(2-hydroxy-2-methylpropyl)amino]imidazo[1,2-b]pyridazin-3-yl}-2-methylbenzamide], the IC50 was 0.2 nM.
